Reference: ChEMBL document CHEMBL4422633, “Antioxidant-Inspired Drug Discovery: Antitumor Metabolite Is Formed in Situ from a Hydroxycinnamic Acid Derivative upon Free-Radical Scavenging” (J Med Chem, 2019)
Activity calls are given as the source filed them. No cut-off for these calls is given here.

Legend:
[1] = Cytotoxicity against mouse L5178 cells assessed as reduction in cell viability after 72 hrs by MTT assay; assay type: functional, cell-based; conditions: L5178, 72 h
[2] = Cytotoxicity against mouse L5178B1 cells transfected with pHa MDR1/A retrovirus assessed as reduction in cell viability after 72 hrs by MTT assay; assay type: functional, cell-based; conditions: MDR1, 72 h
NCI-H460 = assay: Cytotoxicity against human NCI-H460 cells assessed as reduction in cell viability after 72 hrs by MTT assay; assay type: functional, cell-based; conditions: NCI-H460, 72 h
[3] = Cytotoxicity against human NCI-H460/R cells transfected with MDR assessed as reduction in cell viability after 72 hrs by MTT assay; assay type: functional, cell-based; conditions: NCI-H460, 72 h
A549 = assay: Cytotoxicity against human A549 cells assessed as reduction in cell viability after 72 hrs by MTT assay; assay type: functional, cell-based; conditions: A549, 72 h
NCI-H661 = assay: Cytotoxicity against human NCI-H661 cells assessed as reduction in cell viability after 72 hrs by MTT assay; assay type: functional, cell-based; conditions: NCI-H661, 72 h
HaCaT = assay: Cytotoxicity against human HaCaT cells assessed as reduction in cell viability after 72 hrs by MTT assay; assay type: cell-based
MCF7 [4] = assay: Cytotoxicity against human MCF7 cells assessed as reduction in cell viability after 72 hrs by MTT assay; assay type: functional, cell-based; conditions: MCF7, 72 h
HeLa = assay: Cytotoxicity against human HeLa cells assessed as reduction in cell viability after 72 hrs by MTT assay; assay type: functional, cell-based
SiHa = assay: Cytotoxicity against human SiHa cells assessed as reduction in cell viability after 72 hrs by MTT assay; assay type: functional, cell-based
[5] = target: T1, Serine/threonine-protein kinase Chk1 (Homo sapiens) (UniProt O14757); assay: Inhibition of CHK1 phosphorylation at S345 in human MCF7 cells at 10 uM pretreated for 30 mins followed by 10 J/m'2 irradiation and measured after 1 hr by Western blot analysis; assay type: cell-based
T1 sequence (whole entry): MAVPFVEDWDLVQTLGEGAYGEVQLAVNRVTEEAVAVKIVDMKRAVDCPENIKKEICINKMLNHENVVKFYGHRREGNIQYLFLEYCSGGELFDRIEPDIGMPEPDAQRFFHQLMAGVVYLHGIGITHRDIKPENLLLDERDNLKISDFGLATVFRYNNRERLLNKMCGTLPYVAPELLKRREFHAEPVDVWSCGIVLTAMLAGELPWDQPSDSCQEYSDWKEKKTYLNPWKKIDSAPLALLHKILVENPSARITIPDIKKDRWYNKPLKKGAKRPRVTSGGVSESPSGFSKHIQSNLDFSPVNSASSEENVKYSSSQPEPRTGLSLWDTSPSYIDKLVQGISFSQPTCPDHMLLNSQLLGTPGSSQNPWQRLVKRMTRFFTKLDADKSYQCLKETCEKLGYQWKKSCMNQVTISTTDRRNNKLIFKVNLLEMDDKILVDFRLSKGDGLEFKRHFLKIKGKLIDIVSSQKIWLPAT

[6] = target: Serine/threonine-protein kinase Chk2 (Homo sapiens) (UniProt O96017); assay: Inhibition of CHK2 phosphorylation at T68 in human MCF7 cells at 10 uM pretreated for 30 mins followed by 10 J/m'2 irradiation and measured after 1 hr by Western blot analysis; assay type: cell-based
[7] = Antioxidant activity assessed as hydroxyl radical scavenging activity by measuring inhibition of damage to 2-deoxy-D-ribose after 3 mins by TBA-based Fenton reaction assay; assay type: functional
MCF7 [8] = assay: Cytotoxicity against human MCF7 cells assessed as combination index measured at ED50 at H2O2/pcm ratio of 2.5:1 in presence of H2O2 after 48 hrs by MTT assay; assay type: functional
MCF7 [9] = assay: Cytotoxicity against human MCF7 cells assessed as combination index measured at ED75 at H2O2/pcm ratio of 2.5:1 in presence of H2O2 after 48 hrs by MTT assay; assay type: functional
MCF7 [10] = assay: Cytotoxicity against human MCF7 cells assessed as combination index measured at ED90 at H2O2/pcm ratio of 2.5:1 in presence of H2O2 after 48 hrs by MTT assay; assay type: functional
Liver = assay: Antioxidant activity in rat liver microsomes assessed as reduction in lipid peroxidation; assay type: functional, Microsome
MCF7 [11] = assay: Cytotoxicity against human MCF7 cells assessed as combination index measured at ED50 at H2O2/pcm ratio of 1.25:1 in presence of H2O2 after 48 hrs by MTT assay; assay type: functional
MCF7 [12] = assay: Cytotoxicity against human MCF7 cells assessed as combination index measured at ED75 at H2O2/pcm ratio of 1.25:1 in presence of H2O2 after 48 hrs by MTT assay; assay type: functional
MCF7 [13] = assay: Cytotoxicity against human MCF7 cells assessed as combination index measured at ED90 at H2O2/pcm ratio of 1.25:1 in presence of H2O2 after 48 hrs by MTT assay; assay type: functional
MCF7 [14] = assay: Cytotoxicity against human MCF7 cells assessed as combination index measured at ED50 at H2O2/pcm ratio of 0.625:1 in presence of H2O2 after 48 hrs by MTT assay; assay type: functional
MCF7 [15] = assay: Cytotoxicity against human MCF7 cells assessed as combination index measured at ED75 at H2O2/pcm ratio of 0.625:1 in presence of H2O2 after 48 hrs by MTT assay; assay type: functional
MCF7 [16] = assay: Cytotoxicity against human MCF7 cells assessed as combination index measured at ED90 at H2O2/pcm ratio of 0.625:1 in presence of H2O2 after 48 hrs by MTT assay; assay type: functional
[17] = Stability in MeOH and H2O2 by HPLC-PDA assay; assay type: physicochemical
[18] = Drug metabolism assessed as methyl 3-(1-hydroxy-4-oxocyclohexa-2,5-dienyl)acrylate formation by reverse phase-HPLC and HPLC-MS analysis based Fenton reaction assay

Chain of Serine/threonine-protein kinase Chk2 (Homo sapiens) (O96017 whole entry): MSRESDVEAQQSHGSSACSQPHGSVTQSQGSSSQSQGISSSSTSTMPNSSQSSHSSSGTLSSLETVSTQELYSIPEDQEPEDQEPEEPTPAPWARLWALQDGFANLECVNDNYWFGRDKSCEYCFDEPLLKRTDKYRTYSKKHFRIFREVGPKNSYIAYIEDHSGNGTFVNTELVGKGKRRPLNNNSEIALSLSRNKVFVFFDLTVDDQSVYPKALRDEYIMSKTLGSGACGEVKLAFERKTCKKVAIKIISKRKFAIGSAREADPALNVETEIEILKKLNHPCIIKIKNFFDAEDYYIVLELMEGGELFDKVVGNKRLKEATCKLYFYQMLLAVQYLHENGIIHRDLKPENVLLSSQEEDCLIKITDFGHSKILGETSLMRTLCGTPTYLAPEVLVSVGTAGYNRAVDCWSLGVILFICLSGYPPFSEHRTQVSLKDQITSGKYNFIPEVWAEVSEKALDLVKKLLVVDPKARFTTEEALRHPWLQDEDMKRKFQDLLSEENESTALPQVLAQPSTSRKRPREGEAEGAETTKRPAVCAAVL

COC(=O)/C=C/c1ccc(O)cc1 [METHYL P-HYDROXYCINNAMATE]
IC50 [1]: 126 µM
IC50 [2]: > 150 µM
IC50 (NCI-H460): 120 µM
IC50 [3]: 1.04 mM
IC50 (A549): 323 µM
IC50 (NCI-H661): 289 µM
IC50 (HaCaT): 311 µM
IC50 (MCF7 [4]): > 400 µM
IC50 (HeLa): > 150 µM
IC50 (SiHa): > 150 µM
inhibition [5]: inactive
inhibition [6]: inactive
IC50 [7]: 345 µM
CI (MCF7 [8]): 0.79
CI (MCF7 [9]): 0.6
CI (MCF7 [10]): 0.45
IC50 (Liver): 400 nM
CI (MCF7 [11]): 0.93
CI (MCF7 [12]): 0.6
CI (MCF7 [13]): 0.39
CI (MCF7 [14]): 1.06
CI (MCF7 [15]): 0.68
CI (MCF7 [16]): 0.44
Stability [17]: <= 92 hr
Drug metabolism [18]: Metabolite detected
